Laboratory results from patent US8597646B2, “Methods and compositons featuring TGF-beta antagonists for the treatment of marfan syndrome and associated disorders” (The Johns Hopkins University, priority 2005, dated 2013).
Entries after “also recorded” stand apart in the source; their conditions may differ.

Tests used:
Format in all cases: in vivo, mouse
[1] = system: C1039G/+ mice; assay: Aortic wall histology (elastic matrix architecture) in treated C1039G/+ mice; details: 4 months of treatment
[2] = system: C1039G/+ mice; assay: Aortic root growth by echocardiography in C1039G/+ mice, 4 months of treatment
Experimental: Markers of TGFβ antagonism have included reduced plasma levels of free TGFβ, reduced intracellular initiation of the TGFβ signaling cascade, and reduced tissue expression of TGFβ-responsive genes. […] Three independent measurements of the aortic root were made from the long axis echo view in systole at each of 3 time points (baseline, 2 and 4 months of treatment; FIG. 8A). All analyses were performed blinded to genotype and treatment arm. […] This represents the first therapeutic strategy for MFS that derives from interrogation of disease pathogenesis and the first possibility for primary prevention of disease manifestations.

[3] = system: Fbn1C1039G/+ mice; assay: Prenatal treatment with losartan and propranolol, aorta of Fbn1C1039G/+ mice; details: prenatal start
Excerpt: Treatment of the mothers continued throughout lactation and was maintained in the pups after weaning. Mice were killed at 10 months of age. […] The average aortic wall thickness for untreated wild-type animals was smaller than that in placebo-treated Fbn1C1039G/+ mice (P<0.0001) but was indistinguishable from that in losartan-treated Fbn1C1039G/+ mice (P=0.24, FIG. 20E).

[4] = system: Fbn1C1039G/+ mice; assay: Postnatal treatment with losartan and propranolol, aorta of Fbn1C1039G/+ mice
Excerpt: However, before treatment, the aortic diameter in Fbn1C1039G/+ mice was always greater than in untreated wild-type mice (1.59±0.11 mm; P<0.002).
Three independent aortic root measurements were obtained for each mouse every 2 months during the 6 months of treatment. Mice were killed at 8 months of age. […] The aortic root growth rate over this period was less in the wild-type mice than in the placebo-treated Fbn1C1039G/+ mice (P<0.0001, FIG. 21I).

Structure (SMILES): CC(C)NCC(O)COc1cccc2ccccc12 (stereo not drawn) [propranolol]
- Elastic matrix architecture / histologic parameters of the aorta [1]: did not improve
- Aortic growth during the 4 months of treatment ([2]; C1039G/+ mice from 7 weeks of age, losartan 50 mg/kg or propranolol 40 mg/kg, aortic root, echo, placebo 0.44±0.09): 0.22±0.06 mm
- Improvement in any parameter ([2]; propranolol dose with the same antihypertensive effect as losartan): little improvement
- Aortic dilatation ([3]; 10 months): marked aortic dilatation
- Aortic wall architecture score ([3]; 10 months of treatment): not influenced
- Average aortic wall thickness ([3]; 10 months of treatment): indistinguishable from that in the placebo group
- Elastic fiber fragmentation / architecture (VVG staining) ([3]; drinking water, killed at 10 months): observed; also recorded: Marked elastic fiber disruption
- Aortic wall / elastic fiber architecture ([4]; 6 months of treatment): no discernable effect
- Aortic wall thickness ([4]; 6 months of treatment): no discernable effect
- Aortic root growth rate ([4]; during 6 months of treatment): slower rate of aortic root growth than did placebo-treated animals; also recorded: less than that with placebo, yet remains greater than that seen in wild-type mice
- TGF-β signaling in aortic media (nuclear pSmad2) ([4]; from 7 weeks of age, 6 months): Marked increase in nuclear staining for pSmad2
- Elastic fiber fragmentation (VVG staining) ([4]; from 7 weeks of age, 6 months, drinking water): diffuse fragmentation of elastic fibers
